# ChEMBL document CHEMBL4020702, “Development of α1,6-fucosyltransferase inhibitors through the diversity-oriented syntheses of GDP-fucose mimics using the coupling between alkyne and sulfonyl azide” (Bioorg Med Chem, 2017)
# Target: T1, Alpha-(1,6)-fucosyltransferase (Homo sapiens) (UniProt Q9BYC5)
# T1 sequence (whole entry): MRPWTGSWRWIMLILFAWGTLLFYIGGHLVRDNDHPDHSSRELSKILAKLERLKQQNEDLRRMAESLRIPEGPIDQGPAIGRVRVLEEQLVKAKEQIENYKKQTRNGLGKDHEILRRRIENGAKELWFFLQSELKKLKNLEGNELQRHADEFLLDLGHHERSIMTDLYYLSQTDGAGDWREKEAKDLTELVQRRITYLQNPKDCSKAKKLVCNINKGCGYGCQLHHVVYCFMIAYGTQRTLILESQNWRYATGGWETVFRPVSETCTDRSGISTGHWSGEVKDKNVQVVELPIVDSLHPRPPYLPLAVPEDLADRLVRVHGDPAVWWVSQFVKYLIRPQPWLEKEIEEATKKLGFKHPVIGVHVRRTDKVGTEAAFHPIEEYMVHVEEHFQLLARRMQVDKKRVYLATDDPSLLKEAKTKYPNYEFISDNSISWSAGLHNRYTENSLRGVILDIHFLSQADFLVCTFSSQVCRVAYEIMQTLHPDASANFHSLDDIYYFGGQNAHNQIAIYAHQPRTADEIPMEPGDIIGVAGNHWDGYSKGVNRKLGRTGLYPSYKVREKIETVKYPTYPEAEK
# Assay: Inhibition of FUT8 in human […] cells at 100 uM using (S)-2-(((9H-fluoren-9-yl)methoxy)carbonylamino)-4-((2R,3R,4R,5S,6R)-3-acetamido-5-((2S,3R,4R,5S,6R)-3-acetamido-5-((2S,3S,4S,5R,6R)-4-((2R,3S,4S,5S,6R)-3-((2S,3R,4R,5S,6R)-3-acetamido-4,5-dihydroxy-6-(hydroxymethyl)tetrahydro-2H-pyran-2-yloxy)-4,5-dihydroxy-6-(hydroxymethyl)tetrahydro-2H-pyran-2-yloxy)-6-(((2S,3S,4S,5S,6R)-3-((2S,3R,4R,5S,6R)-3-acetamido-4,5-dihydroxy-6-(hydroxymethyl)tetrahydro-2H-pyran-2-yloxy)-4,5-dihydroxy-6-(hydroxymethyl)tetrahydro-2H-pyran-2-yloxy)methyl)-3,5-dihydroxytetrahydro-2H-pyran-2-yloxy)-4-hydroxy-6-(hydroxymethyl)tetrahydro-2H-pyran-2-yloxy)-4-hydroxy-6-(hydroxymethyl)tetrahydro-2H-pyran-2-ylamino)-4-oxobutanoic acid as substrate after 24 hrs in presence of GDP-fucose by HPLC method relative to control
# Format: cell-based
row,SMILES,inhibition [%]
1,CCN(CC)/C(CCO[C@H]1O[C@@H](C)[C@@H](O)[C@@H](O)[C@@H]1O)=N\S(=O)(=O)CCCCCn1cnc2c(=O)[nH]c(N)nc21,39
2,C[C@@H]1O[C@H](OCc2cn(S(=O)(=O)CCCCCn3cnc4c(=O)[nH]c(N)nc43)nn2)[C@@H](O)[C@H](O)[C@@H]1O,45
3,CCCN/C(CCO[C@H]1O[C@@H](C)[C@@H](O)[C@@H](O)[C@@H]1O)=N\S(=O)(=O)CCCCCn1cnc2c(=O)[nH]c(N)nc21,41

# Results, then the compound that gave them:
row,inhibition [%],SMILES
1,57,CO/C(CCO[C@H]1O[C@@H](C)[C@@H](O)[C@@H](O)[C@@H]1O)=N\S(=O)(=O)CCCCCn1cnc2c(=O)[nH]c(N)nc21
2,14,CCCS/C(CCO[C@H]1O[C@@H](C)[C@@H](O)[C@@H](O)[C@@H]1O)=N\S(=O)(=O)CCCCCn1cnc2c(=O)[nH]c(N)nc21
3,31,C[C@@H]1O[C@H](OCCC(=O)NS(=O)(=O)CCCCCn2cnc3c(=O)[nH]c(N)nc32)[C@@H](O)[C@H](O)[C@@H]1O
